# According to patent US9440972B2, “Pyrido[2,3-d]pyrimidine-2,4(1 H,3H)-dione derivatives” (Hydra Biosciences, Inc., priority 2014, dated 2016):
# Target: T1, TRPC5 channel (Homo sapiens, UniProt Q9UL62)
# T1 construct: expressed in transfected cells; host or cells: HEK293/TREx (Invitrogen), tetracycline-induced
# T1 sequence (Q9UL62 1-973): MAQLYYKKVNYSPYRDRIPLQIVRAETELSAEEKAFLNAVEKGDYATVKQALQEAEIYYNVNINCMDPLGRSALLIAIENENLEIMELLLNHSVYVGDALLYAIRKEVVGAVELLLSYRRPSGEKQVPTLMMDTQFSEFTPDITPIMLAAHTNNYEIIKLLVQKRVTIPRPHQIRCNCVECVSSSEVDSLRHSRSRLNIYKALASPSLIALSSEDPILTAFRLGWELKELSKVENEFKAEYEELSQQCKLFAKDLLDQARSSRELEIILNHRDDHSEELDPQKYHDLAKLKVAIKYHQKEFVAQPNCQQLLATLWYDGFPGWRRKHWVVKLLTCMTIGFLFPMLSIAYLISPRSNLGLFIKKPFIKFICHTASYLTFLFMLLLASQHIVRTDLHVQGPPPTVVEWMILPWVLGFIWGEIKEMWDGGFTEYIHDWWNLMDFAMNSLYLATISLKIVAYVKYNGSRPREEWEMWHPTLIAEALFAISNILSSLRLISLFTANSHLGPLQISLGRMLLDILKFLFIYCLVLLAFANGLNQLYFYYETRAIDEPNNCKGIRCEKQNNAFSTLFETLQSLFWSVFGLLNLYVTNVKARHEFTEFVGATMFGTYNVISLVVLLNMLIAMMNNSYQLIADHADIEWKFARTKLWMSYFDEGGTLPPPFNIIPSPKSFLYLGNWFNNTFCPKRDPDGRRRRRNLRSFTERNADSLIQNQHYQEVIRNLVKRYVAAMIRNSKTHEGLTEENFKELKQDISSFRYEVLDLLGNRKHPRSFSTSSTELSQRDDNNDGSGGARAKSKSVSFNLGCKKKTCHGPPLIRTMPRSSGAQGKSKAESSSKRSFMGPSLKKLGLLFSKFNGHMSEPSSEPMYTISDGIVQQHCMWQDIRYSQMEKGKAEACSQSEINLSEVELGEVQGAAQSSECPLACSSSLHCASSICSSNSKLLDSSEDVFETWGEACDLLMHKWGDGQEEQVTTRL
# Test: High throughput screening assay: Fluo4 cell-based fluorescence assay of intracellular Ca2+ rise
# Details: HEK293/TREx cells inducibly expressing TRPC5, 0.027-20 μM in triplicate, NF = no IC50 curve could be fit
# Text: The assay depended on detection of the rise in intracellular Ca2+ concentration ([Ca2+]i) following channel activation in cells inducibly expressing the TRPC5 channel. Ca2+ rise was quantified with the use of fluorescent Ca2+ indicators that were loaded into cells and thereafter indicated the [Ca2+]i Ca2+ influx followed activation of the TRPC5 channel. Compounds inhibiting the [Ca2+]i rise were considered hits for further investigation.
# The commercially available HEK293/TREx line (Invitrogen) was stably transfected with a TRPC5 construct and screened by conventional calcium imaging to find clones with TRPC5 expression following stimulation with 1 μg/ml tetracycline. These cells were maintained in the growth medium recommended by the manufacturer supplemented with 100 μg/ml hygromycin to promote retention of the TRPC5 construct. After growing to near confluency, cells were plated at a density of ˜35,000 cells/well in 384 well CellBind plates (Corning) in the presence of 1 μg/ml tetracycline, and allowed to grow for 20-30 hrs. A nearly confluent monolayer resulted. Cells were then loaded with Ca2+ dye: Fura-2/AM or Fluo4/AM was added to the wells to a final concentration of 4 μM or 0.5 μM, respectively, and incubated for 80 min or 60 min, respectively, at room temperature. Supernatant was then removed from the cells by inverting plates with a sharp flick, and 25 μl Hank's Balanced Salt Solution (HBSS; 0.185 g/l D-glucose, 0.9767 g/l MgS04 (anhydrous), 0.4 g/l KCl, 0.06 g/l KH2PO4 (anhydrous), 0.35 g/l NaHCO3, 8.0 g/l NaCl, and 0.04788 g/l Na2HPO4 (anhydrous); pH 7.4) was then added to each well. Following ˜0.5 hour for recovery from loading, cells were assayed using the Hamamatsu FDSS 6000 system, which permitted illumination alternately at 340 nm and 380 nm for Fura-2 experiments, or at 485 nm for Fluo4 experiments. Frames were acquired at a rate of 0.2 Hz. During the assay, the plates were continuously vortexed, with pipette mixing of wells following addition of each reagent. For the screening assay, 26 μl of a diluted compound stock (at 50 μM) was added to each well for 2 minutes following the collection of a short (4 frame) baseline. 13 μl 62 mM high-Ca2+Ringer solution (4.17 ml of normal ringer (with 2 mM Ca2+) plus 5.83 ml of isotonic calcium ringer (105 mM Ca2+; in this ringer all sodium has been replaced with calcium)) was then added to each well, achieving a final concentration of 14 mM Ca2+ and 10 μM test compound. Data was collected for ˜3 minutes following addition of high Ca2+Ringer, where the fluorescent intensity (for Fluo4) and the F340/F380 ratio (for Fura-2) were proportional to the [Ca2+]i Negative controls consisted of HEK293/TREx TRPC5 cells exposed to high Ca2+ solution, but no compound. Positive control conditions consisted of addition of 2-APB, a promiscuous blocker of TRPC5 and other channels, to columns 23 and 24 of the plates, to a final concentration of 200 μM. These controls defined a screening window, and “hits” were defined as those compounds inhibiting the fluorescence response by at least 40%. IC50 values were determined for compounds defined as “hits.” The Fluo4 cell-based fluorescence assay was used to determine the intracellular Ca2+ concentration in the presence of varying drug concentration. Final concentrations of compounds tested were 20 μM, 6.667 μM, 2.222 μM, 0.741 μM, 0.247 μM, 0.082 μM, and 0.027 μM. Compounds were tested in triplicate at all concentrations. Standard software was used to fit IC50 curves. A value of NF was assigned when no IC50 curves could not be fit.
# Additionally or alternatively, efficacy can be represented as % inhibition in the presence (of a given concentration of compound) versus the absence of compound or in comparison to a control compound. For example, efficacy can be represented as % inhibition of ion flux in the presence versus the absence of compound.
row,Compound,IC50
1,"Cn1c(=O)n(CCCO)c(=O)c2c(Cc3ccc(Cl)cc3)c(Oc3cccnc3)cnc21 [Compound 14, 5-(4-chlorobenzyl)-3-(3-hydroxypropyl)-1-methyl-6-(pyridin-3-yloxy)pyrido[2,3-d]pyrimidine-2,4(1H,3H)-dione]",3250 nM
2,"Cn1c(=O)n(CCCO)c(=O)c2c(Cc3ccc(Cl)cc3)c(Oc3cncc(F)c3)cnc21 [Compound 15, 5-(4-chlorobenzyl)-6-((5-fluoropyridin-3-yl)oxy)-3-(3-hydroxypropyl)-1-methylpyrido[2,3-d]pyrimidine-2,4(1H,3H)-dione]",7530 nM
3,"Cn1c(=O)n(CCCO)c(=O)c2c(Cc3ccc(Cl)cc3)c(Oc3cncc(Cl)c3)cnc21 [Compound 16, 5-(4-chlorobenzyl)-6-((5-chloropyridin-3-yl)oxy)-3-(3-hydroxypropyl)-1-methylpyrido[2,3-d]pyrimidine-2,4(1H,3H)-dione]",3740 nM
4,"Cn1c(=O)n(CCCO)c(=O)c2c(Cc3ccc(C(F)(F)F)nc3)c(Oc3cccc(C(F)(F)F)c3)cnc21 [Compound 24, 3-(3-hydroxypropyl)-1-methyl-6-(3-(trifluoromethyl)phenoxy)-5-((6-(trifluoromethyl)pyridin-3-yl)methyl)pyrido[2,3-d]pyrimidine-2,4(1H,3H)-dione]",1340 nM
5,"Cn1c(=O)n(CCCO)c(=O)c2c(Cc3ccc(Cl)cc3)c(Oc3cccc(Cl)c3)cnc21 [Compound 26, 5-(4-chlorobenzyl)-6-(3-chlorophenoxy)-3-(3-hydroxypropyl)-1-methylpyrido[2,3-d]pyrimidine-2,4(1H,3H)-dione]",1290 nM
6,"CC(C)CCc1c(OC(C)C)cnc2c1c(=O)n(CCCO)c(=O)n2C [Compound 37, 3-(3-hydroxypropyl)-5-isopentyl-6-isopropoxy-1-methylpyrido[2,3-d]pyrimidine-2,4(1H,3H)-dione]",1160 nM
7,"Cn1c(=O)n(CCCO)c(=O)c2c(Cc3ccc(C(F)(F)F)nc3)c(Oc3cccc(Cl)c3)cnc21 [Compound 43, 6-(3-chlorophenoxy)-3-(3-hydroxypropyl)-1-methyl-5-((6-(trifluoromethyl)pyridin-3-yl)methyl)pyrido[2,3-d]pyrimidine-2,4(1H,3H)-dione]",1420 nM
8,"CC(C)CC(O)c1c(Oc2cccc(OC(F)(F)F)c2)cnc2c1c(=O)n(CCCO)c(=O)n2C (stereo not drawn) [Compound 44, 5-(1-hydroxy-3-methylbutyl)-3-(3-hydroxypropyl)-1-methyl-6-(3-(trifluoromethoxy)phenoxy)pyrido[2,3-d]pyrimidine-2,4(1H,3H)-dione]",3450 nM
9,"CC(C)CCc1c(Oc2cccc(C(F)(F)F)c2)cnc2c1c(=O)n(CCCO)c(=O)n2C [Compound 46, 3-(3-hydroxypropyl)-5-isopentyl-1-methyl-6-(3-(trifluoromethyl)phenoxy)pyrido[2,3-d]pyrimidine-2,4(1H,3H)-dione]",> 20000 nM
10,"CC(C)CCc1c(Oc2cccc(Cl)c2)cnc2c1c(=O)n(CCCO)c(=O)n2C [Compound 48, 6-(3-chlorophenoxy)-3-(3-hydroxypropyl)-5-isopentyl-1-methylpyrido[2,3-d]pyrimidine-2,4(1H,3H)-dione]",> 10000 nM
11,"CC(C)CCc1c(Oc2cccc(OC(F)(F)F)c2)cnc2c1c(=O)n(CCCO)c(=O)n2C [Compound 49, 3-(3-hydroxypropyl)-5-isopentyl-1-methyl-6-(3-(trifluoromethoxy)phenoxy)pyrido[2,3-d]pyrimidine-2,4(1H,3H)-dione]",> 20000 nM

# Stronger by IC50, values ahead:
row,IC50,Compound
1,977 nM,"CC(C)c1ccccc1-c1cnc2c(c1C(O)c1ccc(Cl)cc1)c(=O)n(CCCO)c(=O)n2C (stereo not drawn) [Compound 20, 5-((4-chlorophenyl)(hydroxy)methyl)-3-(3-hydroxypropyl)-6-(2-isopropylphenyl)-1-methylpyrido[2,3-d]pyrimidine-2,4(1H,3H)-dione]"
2,180 nM,"Cn1c(=O)n(CCCO)c(=O)c2c(Cc3ccc(C(F)(F)F)cc3)c(Oc3cccc(C(F)(F)F)c3)cnc21 [Compound 22, 3-(3-hydroxypropyl)-1-methyl-5-(4-(trifluoromethyl)benzyl)-6-(3-(trifluoromethyl)phenoxy)pyrido[2,3-d]pyrimidine-2,4(1H,3H)-dione]"
3,739 nM,"Cn1c(=O)n(CCCO)c(=O)c2c(Cc3ccc(Cl)cc3)c(-c3cccc(F)c3)cnc21 [Compound 25, 5-(4-chlorobenzyl)-6-(3-fluorophenyl)-3-(3-hydroxypropyl)-1-methylpyrido[2,3-d]pyrimidine-2,4(1H,3H)-dione]"
4,28.5 nM,"CC(C)c1cccc(Oc2cnc3c(c2Cc2ccccc2)c(=O)n(CCCO)c(=O)n3C)c1 [Compound 28, 5-benzyl-3-(3-hydroxypropyl)-6-(3-isopropylphenoxy)-1-methylpyrido[2,3-d]pyrimidine-2,4(1H,3H)-dione]"
5,350 nM,"Cn1c(=O)n(CCCO)c(=O)c2c(Cc3ccc(C(F)(F)F)nc3)c(Oc3cccc(OC(F)(F)F)c3)cnc21 [Compound 32, 3-(3-hydroxypropyl)-1-methyl-6-(3-(trifluoromethoxy)phenoxy)-5-((6-(trifluoromethyl)pyridin-3-yl)methyl)pyrido[2,3-d]pyrimidine-2,4(1H,3H)-dione]"
6,215 nM,"CC(C)c1ccccc1-c1cnc2c(c1Cc1ccc(Cl)cc1)c(=O)n(CCCO)c(=O)n2C [Compound 38, 5-(4-chlorobenzyl)-3-(3-hydroxypropyl)-6-(2-isopropylphenyl)-1-methylpyrido[2,3-d]pyrimidine-2,4(1H,3H)-dione]"
7,33.8 nM,"CC(C)c1ccccc1Oc1cnc2c(c1Cc1ccc(F)cc1)c(=O)n(CCCO)c(=O)n2C [Compound 41, 5-(4-fluorobenzyl)-3-(3-hydroxypropyl)-6-(2-isopropylphenoxy)-1-methylpyrido[2,3-d]pyrimidine-2,4(1H,3H)-dione]"
